Entries after “also recorded” stand apart in the source; their conditions may differ. Structures can show the parent of a compound that is named as a salt. Where two headings read alike, the source gives them in different places.
What was measured:
platelets = assay: Thrombin-induced platelet aggregation in vitro; type: cell-based, rats; settings: drugs 3 mg/mL; thrombin 0.2 U/mL
Procedure: Blood was collected from rats and centrifuged for 10mins to obtain platelet-rich plasma, which was centrifuged again to collected platelets. The platelets were resus-pended and diluted to a concentration of 5 × 10^5/mL. PRP ([…]), and thrombin ([…]) were added to the platelet suspension in each group and incubated at 37°C. After incubation for 120 s, the reaction solution was well-mixed, and the same amount of thrombin ([…]) was added to a final concentration of 0.2 U/mL.

[1] = system: Hep3B, HepG2, HCCLM3 and HUh7 cells; assay: Thrombin-induced accelerated proliferation of HCC cells (MTS); type: cell-based; settings: 0.5 μM drug, 0.5 U/mL thrombin; for thrombin-induced accelerated proliferation of tumor cells: 12 and 36 h, 4 liver cancer cell lines
Procedure: Cell lines Hep3B, HepG2, HCCLM3 and HUh7 were purchased from Shanghai Biolaf Biotechnology Co., Ltd., and certified by short tandem repeat profiling and mycoplasma and cell vitality testing. The proliferation rate was determined using a cell proliferation assay kit (TOPSCIENCE, C0005). Briefly, cells were seeded in 96-well plates at a concentration of 10,000 cells/well. MTS was added and incubated at 37°C for 2 h. The absorbance was measured at a wavelength of 490 nm. Three independent experiments were per-formed for each assay.

thrombin [2] = target: T1, thrombin (Homo sapiens, UniProt P00734); assay: In vitro thrombin inhibition assay (fluorogenic substrate Ac-FVR-AMC); type: biochemical
T1 construct: a light chain A composed of 39 amino acid residues and a heavy chain B composed of 259 amino acid residues; purchased China National Institute for the Control of Pharmaceutical and Biological Products
Procedure: Lyophilized thrombin, which was purchased from China National Institute for the Control of Pharmaceutical and Biological Products, was reconstituted (5.4 μg/mL), added to the diluted solution, and pre-incubated at 37°C for 10 min.
sample: initial velocity of compound group; VDMSO: initial velocity of blank group, treated with DMSO alone; Inhibition rate (%) = 100/[1 + 10 (LogIC50−X)h], h represents Hill coefficient.

thrombin [3] = target: T1, thrombin; assay: Thrombin time; settings: drugs 3 mg/mL, thrombin 0.2 U/mL
HepG2 tumor = HepG2 tumor model in BALB/c nude mice; settings: 28 days
Procedure: 20,000 HepG2 cells were injected into the fat pad of each female Balb/c mouse. The long and short diameters of the tumor were measured using a caliper. Medication was started when a rumor size of 100 mm^3 was reached. Sorafenib, ZXX-4, and sorafenib combined with ZXX-4 were administered for 28 days. The body weight and tumor size of the mice were measured twice a week. The mice were sacrificed after 28 days of treatment, the tumor weight was measured, and the number of metastases was counted by Indian ink staining of the lung.

BALB/c nude mice = assay: Single oral dose tolerance in BALB/c nude mice; type: in vivo; settings: single oral administration of 500 mg/kg, 24 h
[4] = thrombin 5.4 μg/mL, substrate 5 μM, 37°C, read-out: IC50

## CCCCCCOC(=O)N=C(N)c1ccc(NCc2nc3cc(C(=O)N(CCC(=O)OCC)c4ccccn4)ccc3n2C)cc1 [dabigatran etexilate, reference compound]
platelets
  platelet aggregation rate: less than 50%
[1]
  thrombin-induced accelerated proliferation of tumor cells: reduced to different degrees

## Saralasin acetate [ZXX-1]
Thrombin [2]; [4]
  IC50: 175 ± 18 nM

## Fc1ccc(Cl)c(COc2cccc3onc(Nc4cccnc4)c23)c1 [ZXX-5, SMS2-IN-2]
Thrombin [3]
  thrombin time (in words): significantly prolonged
platelets
  platelet aggregation rate: less than 50%
Thrombin [2]; [4]
  IC50: 45 ± 10 nM
[1]
  thrombin-induced accelerated proliferation of tumor cells: reduced to different degrees

## NCCOc1cc(C(=O)Nc2cc(OCCN)c3ccccc3n2)nc(C(=O)Nc2cc(OCCN)c3ccccc3n2)c1 [ZXX-20, Pyridostatin Trihydrochloride]
Thrombin [2]; [4]
  IC50: 98 ± 15 nM

## C-Reactive Protein (CRP) 201–206 acetate [ZXX-17]
Thrombin [3]
  thrombin time (in words): significantly prolonged
platelets
  platelet aggregation rate: less than 50%
Thrombin [2]; [4]
  IC50: 52 ± 9 nM
[1]
  thrombin-induced accelerated proliferation of tumor cells: reduced to different degrees

## CNC(=O)c1cc(Oc2ccc(NC(=O)Nc3ccc(Cl)c(C(F)(F)F)c3)cc2)ccn1 [sorafenib, reference compound]
HepG2 tumor; ZXX-4 50 mg/kg/day and/or sorafenib 30 mg/kg/day, oral
  tumor weight: slightly better than that of ZXX-4

## C=C(c1ccccc1OCc1cccc(Cl)c1)n1ccnc1 [ZXX-11, CROCONAZOLE]
Thrombin [3]
  thrombin time (in words): significantly prolonged
platelets
  platelet aggregation rate: less than 50%
Thrombin [2]
  IC50: 72 ± 20 nM
[1]
  thrombin-induced accelerated proliferation of tumor cells: reduced to different degrees

## [Sarl, Ile8]-Angiotensin II acetate [ZXX-4]
Thrombin [3]
  thrombin time (in words): significantly prolonged
Thrombin [3]; 180 s = upper limit of detection
  thrombin time: 180 s
platelets
  platelet aggregation rate: less than 50%
  platelet aggregation rate compared with dabigatran etexilate: not significant
Thrombin [2]; [4]
  IC50: 23 ± 5 nM
[1]
  relative activity on thrombin-induced proliferation: highest activity, which was comparable to dabigatran etexilate
  thrombin-induced accelerated proliferation of tumor cells: reduced to different degrees
BALB/c nude mice
  survival after single dose: survived
HepG2 tumor; 50 mg/kg/day oral
  HepG2 tumor growth: inhibited HepG2 tumor growth
HepG2 tumor; ZXX-4 50 mg/kg/day and/or sorafenib 30 mg/kg/day, oral, Indian ink staining
  number of lung metastatic nodules: com-parable to that of sorafenib; also recorded: reduced tumor metastasis
HepG2 tumor; ZXX-4 50 mg/kg/day with sorafenib 30 mg/kg/day, oral
  effect on the efficacy of sorafenib: enhanced

## LSKL [ZXX-2]
Thrombin [3]
  thrombin time (in words): significantly prolonged
platelets
  platelet aggregation rate: less than 50%
Thrombin [2]; [4]
  IC50: 68 ± 12 nM
[1]
  thrombin-induced accelerated proliferation of tumor cells: reduced to different degrees
